Legend:
phopholipase Dz2 = assay: PLDz::GUS, follow-up of the expression of the gene encoding phospholipase Dz2 (GUS staining); format: in vivo, A. thaliana; details: high phosphate medium + MC2 5 μM, FIG. 10
Procedure: pPLDZ2:GUS-GFP cell line is as described by Cruz-Ramirez et al. (Cruz-Ramirez et al., 2006), and expressed a GUS-GFP fusion under the control of the pldz2 promoter. […] Plants were examined for GUS activity by dipping the samples in a GUS staining solution (50 mM sodium phosphate buffer pH 7.0; 0.01% Triton X-100, 1 mM K3Fe(CN)6, 1 mM K4Fe(CN)6, 1 mg/ml 5-dromo-4-chloro-3-indolyl (3-D-GLUCURONIDE (X-Gluc A) and incubated at 37° C. over-night. After staining, the plants were fixed 2 hours in 50 mM sodium phosphate buffer pH 7.0; 1% glutaraldehyde; 4% formaldehyde. In response to phosphate starvation, the lipid metabolism is modified (Benning and Ohta, 2005). Plants preferentially synthesize sulpho- and galacto-lipids instead of phospholipids. Several enzymes are involved in this remobilisation.

iron transporter IRT1 = assay: IRT1::GUS, follow-up of the expression of the gene encoding the iron transporter IRT1 (GUS staining); format: in vivo, A. thaliana; details: compound added to the cultivation medium; MC2 5 μM, FIG. 13
Procedure: pIRT1:GUS cells were obtained as described by Vert et al. (Vert et al., 2002) and carry a irt1 promoter-GUS fusion. […] Plants were examined for GUS activity by dipping the samples in a GUS staining solution (50 mM sodium phosphate buffer pH 7.0; 0.01% Triton X-100, 1 mM K3Fe(CN)6, 1 mM K4Fe(CN)6, 1 mg/ml 5-dromo-4-chloro-3-indolyl (3-D-GLUCURONIDE (X-Gluc A) and incubated at 37° C. over-night. After staining, the plants were fixed 2 hours in 50 mM sodium phosphate buffer pH 7.0; 1% glutaraldehyde; 4% formaldehyde.

Cyclin B1 = assay: CycB1::GUS, follow-up of the expression of the gene encoding Cyclin B1 (meristematic activity marker); format: in vivo, A. thaliana; details: high phosphate medium + MC2 5 μM, FIG. 6
Description: pCycB1;1:GUS cell line is as described by Colón-Carmona et al. (Colon-Carmona et al., 1999), and expresses the GUS reporter under the control of the promoter of the cyclin B1 gene. […] In response to phosphate deficiency, CycB1 is less expressed. Suprisingly, in response to MC2, the meristematic activity is not reduced (FIG. 6). Thus, it can be concludes that the primary root growth inhibition observed in response to the molecule is not due to inhibition of the meristematic activity.

wild type seedlings [1] = assay: Starch accumulation (Lugol/iodine staining); format: in vivo, A. thaliana; details: MC2 5 μM; same response as phosphate deficiency (starch strongly accumulated), FIG. 7
Procedure: Leaves were immersed in ethanol (96%) for 6 h to remove pigment and stained with Lugol solution (Fluka) for 30 min to make the starch granules visible.

wild type seedlings [2] = assay: Anthocyanins content (spectrophotometric); format: in vivo, A. thaliana; design: key to Antho: anthocyanin content as A530 - 2.2*A652
Procedure: Anthocyanins were extracted with propanol:HCl:H2O (81:1:18) for 5 min at room temperature and 3 min at 100° C. Samples are centrifuged for 10 min at 4° C. Supernatants were collected and absorption measured at 530 nm and […]. Anthocyanin content was calculated as A530-2.2A652 (Lange et al., 1971).

wild-type seedlings = assay: Free cellular Pi content (malachite green method); format: in vivo, A. thaliana; details: high phosphate medium + MC2 5 μM vs control condition, FIG. 3
Procedure: Three replicates were performed for each experiment. After 5 min of centrifugation, the supernatant was recovered. Phosphate content was measured using the malachite green method as described (Delhaize and Randall, 1995). One hundred and fifty microliters of molybdate solution (17.55 g/l (NH4)6Mo7, 4H2O, 2M H2SO4) were added to the sample (50 μl) diluted in water (700 μl). Ten minutes later, 150 μl of green malachite solution (3.5 g/l polyvinylic alcohol, 0.35 g/l malachite green) were then added. Measurements were carried out at 610 nm after 2 h. Concentrations were calculated using a calibration curve (performed with aKH2PO4 solution) and expressed per fresh weight. To evaluate if this expression interferes with phosphate content, phosphate content was analyzed in different conditions: high phosphate medium (+Pi), low phosphate medium (−Pi) and high phosphate medium+MC2, 5 μM (+Pi, +MC2 5 μM). […] This phosphate accumulation can be easily explained by the overexpression of the phosphate transporter.

Acid phosphatase = Acid phosphatase activity in root extract (spectrophotometric); format: in vivo; details: 10 days old plants, high phosphate medium + 5 μM MC2, FIG. 4
Procedure: FIG. 4: Acid phosphatase activity was assayed spectrophotometrically in root extract from 10 days old plants grown in high phosphate medium, in low phosphate medium or in high phosphate medium supplied with 5 μM of MC2. Values represent the mean of 3 experiments±SD.
In response to phosphate deficiency, plants are able to secrete phosphatase in soil in order to remobilize phosphate from soil.

ferritin = assay: Western blot of plant ferritin on leaf protein extracts; format: in vivo; details: leaves, high phosphate medium + MC2 5 μM, FIG. 12
Description: After SDS-PAGE in a 12% acrylamide gel and transfer onto a nitrocellulose membrane, ferritin was immunodetected with a primary rabbit polyclonal antibody against AtFER1 and a secondary goat antirabbit antibody conjugated with alkaline phosphatase.
From previous study in the lab, it is known that in response to phosphate starvation, iron is accumulated in cells inducing ferritin accumulation (Hirsch et al., 2006). To determine MC2 effect on iron metabolism, the iron content was quantified by ICP-OES (FIG. 11), accumulation of ferritin was analyzed by Western Blot (FIG. 12) and finally IRT1 gene expression was analyzed, since this gene encodes an iron transporter (FIG. 12).

Medicago truncatula = assay: Root growth of Medicago truncatula in phosphate deficient medium; format: in vivo; details: phosphate 10 μM, MC2 5 μM, 10 days, FIG. 14
Procedure: Medicago truncatula seeds were surface-sterilized as follow: soaking in concentrated sulphuric acid for 10 min, rinsing three times with sterile distilled water, soaking in 10% bleach/0.1% Tween 20 solution for 10 min with gentle agitation and finally by rinsing seeds three times with sterile distilled water. Seeds were germinated 48 h in dark. […] In the phosphate (Pi) deficient medium, NaCl (0.5 mM) was used to replace the equivalent amount of sodium provided by NaH2PO4.). Plants were maintained 10 days under a 14 h light/10 h 150 μm^−2s^−1 dark regime with a temperature of 22/18° C. for light/dark phases in a phytotron.

Structure (SMILES): Cc1cccc(NC=C2C(=O)CC(C)(C)CC2=O)n1 [MC2]
- PLDζ2 expression (in words) (phopholipase Dz2): strongly expressed
- IRT1 expression (in words) (iron transporter IRT1): inhibits IRT1 expression
- meristematic activity (CycB1 expression, in words) (Cyclin B1): not reduced
- starch accumulation (in words) (wild type seedlings [1]): same response
- anthocyanins accumulation (in words) (wild type seedlings [2]; MC2 5 μM, FIG. 8): strong accumulation
- Antho (wild type seedlings [2]; accumulation of anthocyanes, +P control 46, −P 1008): 454
- phosphate accumulation in leaves (wild-type seedlings): two times more
- phosphate accumulation in roots (wild-type seedlings): two times more
- phosphatase activity (Acid phosphatase): inducing phosphatase activity
- ferritin accumulation (Western blot) (ferritin): not in response to MC2 treatment
- growth of roots in a Pi deficient medium (Medicago truncatula): improved

Reference: patent US9028855B2, “Plant additives and uses thereof to modulate the synthesis of membrane glycerolipids in planta” (Commissariat a l'Energie Atomique et aux Energies …, priority 2009, dated 2015)
